These results are taken from BindingDB's records for PubMed 32853683 (Peking Union Medical College, 2020).

A short description of test [1]: Inhibition of caspase-like activity of human 20S proteasome beta 1.
Test [2] is described as follows: Inhibition of trypsin-like activity of human 20S proteasome beta 2.

The structures appear in SMILES notation. Some results are limits rather than exact numbers.

As for `CCCc1ccc(OCC(=O)N(Cc2nc(-c3cccnc3)no2)C(C)C)cc1`, the IC50 in test [1] and in test [2] was over 50 µM in each case.

Turning to `CCCc1ccc(OCC(=O)N(Cc2nc(-c3ccco3)no2)C(C)C)cc1`, the IC50 in test [1] and in test [2] was over 50 µM each time.

With `CCCc1ccc(OCC(=O)N(Cc2nc(-c3cccs3)no2)C(C)C)cc1`, the IC50 in test [1] and in test [2] was over 50 µM each time.

As to `CCCc1ccc(OCC(=O)N(Cc2cccc(-c3cccnc3)c2)C(C)C)cc1`, the IC50 in test [1] and in test [2] was over 50 µM in each case.
